In patent publication US5486517A, “Benzimidazoles and imidazopyridines as central nervous system agents” (Warner-Lambert Company, priority 1994, dated 1996) one finds IC50 and ED50 data, which are given here for 22 compounds.

One may read the IC50 as the concentration that gives 50% inhibition. The term ED50 denotes the dose at which the effect has come halfway, by size or by number of responders. The low end stands for greater potency, the high end for weaker potency.

For one test, the target named is T1, Human D3 Receptors (Homo sapiens, UniProt P35462).
T1 construct: expressed in transfected cells
T1 sequence (P35462 whole entry): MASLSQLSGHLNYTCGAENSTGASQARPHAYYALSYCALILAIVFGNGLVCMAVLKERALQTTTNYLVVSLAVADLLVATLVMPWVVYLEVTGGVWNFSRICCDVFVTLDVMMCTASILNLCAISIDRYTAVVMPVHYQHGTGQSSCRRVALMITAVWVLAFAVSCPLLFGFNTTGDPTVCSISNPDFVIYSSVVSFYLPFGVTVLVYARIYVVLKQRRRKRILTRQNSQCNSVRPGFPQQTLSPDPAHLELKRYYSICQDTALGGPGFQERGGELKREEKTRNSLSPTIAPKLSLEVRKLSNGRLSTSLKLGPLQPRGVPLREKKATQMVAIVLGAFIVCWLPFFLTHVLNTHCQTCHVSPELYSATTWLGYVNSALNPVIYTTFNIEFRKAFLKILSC
Nature of the test: Inhibition of [^3 H]spiperone binding to human D3 receptors. From the text:
Dopamine D2 antagonists are established as antipsychotic agents. More recently, the dopamine D3 receptor has been identified. On the basis of the localization of the dopamine D3 receptor in the limbic area of the brain, a selective D3 antagonist should show antipsychotic activity but not have the neurological side effects of D2 antagonists. […] The above test methods are incorporated herein by reference.

Another test deals with T2, Human D2 Receptors (Homo sapiens, UniProt P14416).
T2 construct: expressed in transfected cells
T2 sequence (P14416 whole entry): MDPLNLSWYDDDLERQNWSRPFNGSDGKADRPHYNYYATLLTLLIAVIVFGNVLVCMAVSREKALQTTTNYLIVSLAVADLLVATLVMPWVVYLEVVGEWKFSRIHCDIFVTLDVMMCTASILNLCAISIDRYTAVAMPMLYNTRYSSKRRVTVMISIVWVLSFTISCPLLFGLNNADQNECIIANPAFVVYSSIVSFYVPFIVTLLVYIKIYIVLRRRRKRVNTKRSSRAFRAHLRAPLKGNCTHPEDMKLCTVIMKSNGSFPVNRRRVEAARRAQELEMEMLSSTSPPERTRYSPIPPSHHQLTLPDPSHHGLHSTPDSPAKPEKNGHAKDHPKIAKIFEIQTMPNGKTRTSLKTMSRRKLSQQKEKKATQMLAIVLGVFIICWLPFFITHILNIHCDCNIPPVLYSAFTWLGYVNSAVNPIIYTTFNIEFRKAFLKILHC
Put plainly: Inhibition of [^3 H]spiperone binding to human D2 receptors. The source says: (§1) The compounds of Formula I are valuable dopaminergic agents. Dopamine D2 antagonists are established as antipsychotic agents. More recently, the dopamine D3 receptor has been identified. On the basis of the localization of the dopamine D3 receptor in the limbic area of the brain, a selective D3 antagonist should show antipsychotic activity but not have the neurological side effects of D2 antagonists. The tests employed indicate that compounds of Formula I bind selectively to the dopamine D3 receptor. Thus, the compounds of Formula I were tested for their ability to bind to dopamine receptors as measured by their inhibition of [^3 H]spiperone binding to the human D2 and D3 receptors in a receptor assay described by MacKenzie R. G., et al., Characterization of the human D3 dopamine receptor expressed in transfected cell lines, Eur. J. Pharmacol., 266:79 (1994); and for their ability to inhibit locomotor activity in mice and rats, a measure of antipsychotic activity, according to the assay described by McLean J. R., et al., Pharmacology, Biochemistry and Behavior, 8:97-99 (1978). The above test methods are incorporated herein by reference.

For test [1], the system named is Locomotor Activity in Rats. Put plainly: Inhibition of locomotor activity in rats. The test is classed as in vivo. Conditions: Rattus norvegicus, IP.
Text: as §1

[2] abbreviates: human D3, transfected cell lines, read-out: Inhibition of [^3 H]Spiperone Binding to Human D3 Receptors IC50.
Setting [3] is: human D2, read-out: Inhibition of [^3 H]Spiperone Binding to Human D2 Receptors IC50.

Where two headings read alike, the source gives them in different places.

For the compound `c1ccc(N2CCN(CCCOc3ccc(-c4nc5ccccc5[nH]4)cc3)CC2)cc1` [Example 1, 2-[4-[3-(4-Phenyl-1-piperazinyl)propoxy]phenyl]-1H-benzimidazole], the IC50 came out at 0.001 µM on Human D3 Receptors (setting [2]) and 0.406 µM on Human D2 Receptors (setting [3]). Moreover, the 50% effect level in test [1] (ED50) was put at a dose of 2.3 mg/kg.
Take `Clc1cccc(N2CCN(CCCOc3ccc(-c4nc5ccccc5[nH]4)cc3)CC2)c1Cl` [Example 2, 2-[4-[3-[4-(2,3-Dichlorophenyl)-1-piperazinyl]propoxy]phenyl]-1H-benzimidazole]: the results for the half-inhibitory concentration (IC50) on Human D3 Receptors (setting [2]) and at Human D2 Receptors (setting [3]) were 0.0017 µM and 0.045 µM, respectively.
In the case of `c1ccc(N2CCN(CCCOc3ccc(-c4nc5ccccc5[nH]4)cc3)CC2)nc1` [Example 3, 2-[4-[3-[4-(2-Pyridinyl)-1-piperazinyl]propoxy]phenyl]-1H-benzimidazole], on Human D2 Receptors (setting [3]), the IC50 was determined as 0.07 µM.
With `c1cnc(N2CCN(CCCOc3ccc(-c4nc5ccccc5[nH]4)cc3)CC2)nc1` [Example 4, 2-[4-[3-[4-(2-Pyrimidinyl)-1-piperazinyl]propoxy]phenyl]-1H-benzimidazole], the 50% inhibitory concentration (IC50) at Human D2 Receptors (setting [3]) is 0.269 µM.
Regarding `Cc1ccc(N2CCN(CCCOc3ccc(-c4nc5ccccc5[nH]4)cc3)CC2)cc1` [Example 5, 2-[4-[3-[4-(4-Methylphenyl)-1-piperazinyl]propoxy]phenyl]-1H-benzimidazole], the figures for the IC50 on Human D3 Receptors (setting [2]) and on Human D2 Receptors (setting [3]) were 0.102 µM and 2.78 µM, respectively.
As to `Fc1ccc(N2CCN(CCCOc3ccc(-c4nc5ccccc5[nH]4)cc3)CC2)cc1` [Example 6, 2-[4-[3-[4-(4-Fluorophenyl)-1-piperazinyl]propoxy]phenyl]-1H-benzimidazole], the 50% inhibitory concentration (IC50) at Human D3 Receptors (setting [2]) was 0.016 µM; on Human D2 Receptors (setting [3]), 0.119 µM.
In the case of `CCCSc1ccccc1N1CCN(CCCOc2ccc(-c3nc4ccccc4[nH]3)cc2)CC1` [Example 7, 2-[4-[3-[4-[2-(Propylthio)phenyl]-1-piperazinyl]propoxy]phenyl]-1H-benzimidazole], at Human D2 Receptors (setting [3]), the IC50 was determined as 0.0037 µM.
Take `C1=C(c2ccccc2)CCN(CCCOc2ccc(-c3nc4ccccc4[nH]3)cc2)C1` [Example 8, 2-[4-[3-(3,6-Dihydro-4-phenyl-1(2H)-pyridinyl)propoxy]phenyl]-1H-benzimidazole]: the IC50 on Human D3 Receptors worked out at 0.018 µM; at Human D2 Receptors (setting [3]) it was 0.672 µM.
`Clc1ccc(N2CCN(CCCOc3ccc(-c4nc5ccccc5[nH]4)cc3)CC2)cc1` [Example 9, 2-[4-[3-[4-(4-Chlorophenyl)-1-piperazinyl]propoxy]phenyl]-1H-benzimidazole]: the IC50 at Human D2 Receptors (setting [3]) turned out to be 0.784 µM.
The compound `COc1ccccc1N1CCN(CCCOc2ccc(-c3nc4ccccc4[nH]3)cc2)CC1` [Example 10, 2-[4-[3-[4-(2-Methoxyphenyl)-1-piperazinyl]-propoxy]phenyl]-1H-benzimidazole] displayed a half-inhibitory concentration (IC50) on Human D2 Receptors of 0.008 µM.
Consider `COc1ccc(N2CCN(CCCOc3ccc(-c4nc5ccccc5[nH]4)cc3)CC2)cc1` [Example 11, 2-[4-[3-[4-(4-Methoxyphenyl)-1-piperazinyl]-propoxy]phenyl]-1H-benzimidazole], for which, on Human D2 Receptors (setting [3]), the IC50 worked out at 0.265 µM.
For the compound `Clc1cccc(N2CCN(CCCOc3ccc(-c4nc5ccccc5[nH]4)cc3)CC2)c1` [Example 12, 2-[4-[3-[4-(3-Chlorophenyl)-1-piperazinyl]-propoxy]phenyl]-1H-benzimidazole], the half-maximal inhibitory concentration (IC50) at Human D2 Receptors (setting [3]) worked out at 1.27 µM.
For `Clc1cccc(N2CCN(CCCOc3ccc(-c4nc5cccnc5[nH]4)cc3)CC2)c1Cl` [Example 13, 2-[4-[3-[4-(2,3-Dichlorophenyl)-1-piperazinyl]propoxy]phenyl]-3H-imidazo[4,5-b]pyridine], the results for the IC50 at Human D3 Receptors (setting [2]) and at Human D2 Receptors (setting [3]) were 0.003 µM and 0.329 µM, respectively. The same compound came in with an ED50 in test [1] of 4.2 mg/kg.
On to `Cn1c(-c2ccc(OCCCN3CCN(c4ccccc4)CC3)cc2)nc2ccccc21` [Example 14, 1-Methyl-2-[4-[3-(4-phenyl-1-piperazinyl)-propoxy]phenyl]-1H-benzimidazole], for which the IC50 at Human D3 Receptors (setting [2]) came to 0.0095 µM; on Human D2 Receptors (setting [3]), 0.219 µM.
In the case of `C(#Cc1ccc(-c2nc3ccccc3[nH]2)cc1)CCN1CCN(c2ccccc2)CC1` [Example 15, 2-[4-[4-(4-Phenyl-1-piperazinyl)-1-butynyl]phenyl]-1H-benzimidazole], the values for the concentration for half-maximal inhibition (IC50) at Human D3 Receptors (setting [2]) and on Human D2 Receptors (setting [3]) were 0.0017 µM and 0.581 µM, respectively.
As to `c1ccc(N2CCN(CCCCOc3ccc(-c4nc5ccccc5[nH]4)cc3)CC2)cc1` [Example 16, 2-[4-[4-(4-Phenyl-1-piperazinyl)butoxy]phenyl]-1H-benzimidazole], the results for the 50% inhibitory concentration (IC50) on Human D3 Receptors (setting [2]) and at Human D2 Receptors (setting [3]) were 0.0017 µM and 0.046 µM, respectively.
As to `c1ccc(N2CCN(CCCNc3ccc(-c4nc5ccccc5[nH]4)cc3)CC2)cc1` [Example 17, N-[4-(1H-Benzimidazol-2-yl)phenyl]-4-phenyl-1-piperazine-3-propanamine], the half-inhibitory concentration (IC50) came out at 0.0016 µM on Human D3 Receptors (setting [2]) and 0.022 µM on Human D2 Receptors (setting [3]).
Consider `O=C(NCCN1CCN(c2ccccc2)CC1)c1ccc(-c2nc3ccccc3[nH]2)cc1` [Example 18, 4-(1H-Benzimidazol-2-yl)-N-[2-(4-phenyl-1-piperazinyl)ethyl]benzamide], for which, on Human D2 Receptors (setting [3]), the IC50 is 0.281 µM.
Regarding `CCCSc1ccccc1N1CCN(CCNC(=O)c2ccc(-c3nc4ccccc4[nH]3)cc2)CC1` [Example 19, 4-(1H-Benzimidazol-2-yl)-N-[2-[4-[2-(propylthio)phenyl]-1-piperazinyl]ethyl]benzamide], the IC50 on Human D3 Receptors (setting [2]) stood at 0.019 µM; on Human D2 Receptors (setting [3]), 0.119 µM.
Consider `COc1ccccc1N1CCN(CCNC(=O)c2ccc(-c3nc4ccccc4[nH]3)cc2)CC1` [Example 20, 4-(1H-Benzimidazol-2-yl)-N-[2-[4-(2-methoxyphenyl)-1-piperazinyl]ethyl]benzamide], for which the 50% inhibitory concentration (IC50) on Human D3 Receptors (setting [2]) was 0.024 µM; at Human D2 Receptors (setting [3]), 0.055 µM.
On to `C(=C/c1ccc(-c2nc3ccccc3[nH]2)cc1)/CCN1CCN(c2ccccc2)CC1` [Example 21, (Z)-2-[4-[4-(4-Phenyl-1-piperazinyl)-1-butenyl]phenyl]-1H-benzimidazole], for which the concentration for half-maximal inhibition (IC50) at Human D3 Receptors (setting [2]) is 0.081 µM; on Human D2 Receptors (setting [3]) it was 0.1 µM.
Regarding `c1ccc(N2CCN(CCCCc3ccc(-c4nc5ccccc5[nH]4)cc3)CC2)cc1` [Example 22, 2-[4-[4-(4-Phenyl-1-piperazinyl)butyl]phenyl]-1H-benzimidazole], the concentration for half-maximal inhibition (IC50) is 0.0013 µM at Human D3 Receptors (setting [2]) and 0.032 µM on Human D2 Receptors (setting [3]).
